Test results reported in patent publication US8440209B2, “Adhesive for medical applications and means for haemostasis” (Stryker Trauma GmbH, priority 2006, dated 2013).

Tested on: S. aureus ATCC 6538
Assay: agar diffusion test according to Burkhardt
Assay type: cell-based
Settings: 18+2 hours at 36° C.
Procedure: The agar diffusion test according to Burkhardt (Burkhardt, F. (Hrsg.) Mikrobiologische Diagnostik. Georg-Thieme Verlag Stuttgart, New York 1992, p. 724) was carried out. Mueller-Hinton II-Agar in Stacker Petri dishes (Becton Dickinson Microbiology Systems, Cockeysville, USA) were employed in the test for 15. The strain S. aureus ATCC 6538 was selected as test strain. The initial seed of this test strain was chosen such that after […] of incubation, closely standing, but not confluent, single colonies had developed. After drying of the seeded culture media, the treated collagen non-woven material was applied to the agar surface. After 18+2 hours incubation at 36° C., the inhibition sphere was measured.

Gentamycine
Inhibition sphere against S. aureus ATCC 6538 (Treatment 20%): 24 | Inhibition sphere against S. aureus ATCC 6538 (Treatment 40%): 38
